# From ChEMBL document CHEMBL5620419, “Discovery of new Lenalidomide derivatives as potent and selective GSPT1 degraders” (Eur J Med Chem, 2023)
# Target: Protein cereblon/Eukaryotic peptide chain release factor GTP-binding subunit ERF3A (Homo sapiens, UniProt P15170+Q96SW2)
# Experiment: PROTAC activity at CRBN/GSPT1 in human U-937 cells assessed as degradation of GSPT1 measured after 6 hrs by Western blot analysis
# Format: cell-based
# Sequence of Protein cereblon/Eukaryotic peptide chain release factor GTP-binding subunit ERF3A (Q96SW2 whole entry): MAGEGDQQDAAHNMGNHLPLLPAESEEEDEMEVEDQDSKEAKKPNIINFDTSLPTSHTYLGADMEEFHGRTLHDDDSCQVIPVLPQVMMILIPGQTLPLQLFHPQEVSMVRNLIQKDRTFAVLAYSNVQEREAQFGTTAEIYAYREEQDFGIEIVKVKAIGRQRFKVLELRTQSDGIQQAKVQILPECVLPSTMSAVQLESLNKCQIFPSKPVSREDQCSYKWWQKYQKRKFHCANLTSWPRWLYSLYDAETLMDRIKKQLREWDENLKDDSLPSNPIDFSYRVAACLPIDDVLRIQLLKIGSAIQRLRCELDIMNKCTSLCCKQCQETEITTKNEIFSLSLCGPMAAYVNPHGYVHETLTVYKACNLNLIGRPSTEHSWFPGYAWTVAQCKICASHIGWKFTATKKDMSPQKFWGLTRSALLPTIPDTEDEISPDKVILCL
# Sequence of Protein cereblon/Eukaryotic peptide chain release factor GTP-binding subunit ERF3A (P15170 whole entry): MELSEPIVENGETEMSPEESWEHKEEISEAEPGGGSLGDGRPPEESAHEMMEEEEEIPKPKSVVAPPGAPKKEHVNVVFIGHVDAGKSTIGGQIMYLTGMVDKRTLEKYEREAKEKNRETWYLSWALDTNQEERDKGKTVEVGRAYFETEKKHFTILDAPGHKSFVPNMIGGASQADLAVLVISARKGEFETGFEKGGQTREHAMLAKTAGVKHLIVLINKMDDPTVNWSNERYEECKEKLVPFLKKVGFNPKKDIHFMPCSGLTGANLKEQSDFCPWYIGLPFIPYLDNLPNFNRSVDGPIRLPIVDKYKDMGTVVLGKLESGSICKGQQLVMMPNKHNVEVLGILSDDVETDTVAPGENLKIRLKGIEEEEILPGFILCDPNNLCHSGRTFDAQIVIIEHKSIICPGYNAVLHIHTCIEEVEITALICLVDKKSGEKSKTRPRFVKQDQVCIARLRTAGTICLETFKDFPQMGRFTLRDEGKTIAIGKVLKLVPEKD
row,SMILES,EC50 [nM]
1,Cc1ccc(NC(=O)CC(C)c2ccc3c(c2)C(=O)N(C2CCC(=O)NC2=O)C3)cc1Cl (stereo not drawn),> 10000
2,Cc1cc(NC(=O)CCc2ccc3c(c2)C(=O)N(C2CCC(=O)NC2=O)C3)ccc1Cl (stereo not drawn),143
3,Cc1c(Cl)cc(NC(=O)CCc2ccc3c(c2)C(=O)N(C2CCC(=O)NC2=O)C3)cc1CN1CCC(N2CCOCC2)CC1 (stereo not drawn),176
4,Cc1c(Cl)cc(NC(=O)CCc2ccc3c(c2)C(=O)N(C2CCC(=O)NC2=O)C3)cc1CN1CC(N2CCOCC2)C1 (stereo not drawn),208
5,Cc1c(Cl)cc(NC(=O)CCc2ccc3c(c2)C(=O)N(C2CCC(=O)NC2=O)C3)cc1CN1CCN(C)CC1 (stereo not drawn),2200
6,Cc1c(Cl)cc(NC(=O)CCc2ccc3c(c2)C(=O)N(C2CCC(=O)NC2=O)C3)cc1CN1CCN(C2COC2)CC1 (stereo not drawn),220
7,Cc1c(Cl)cc(NC(=O)CCc2ccc3c(c2)C(=O)N(C2CCC(=O)NC2=O)C3)cc1CN1CCOCC1 (stereo not drawn),48
8,Cc1c(Cl)cc(NC(=O)CCc2ccc3c(c2)C(=O)N(C2CCC(=O)NC2=O)C3)cc1CN1CC2(COC2)C1 (stereo not drawn),86
